This note sets out measurements from ChEMBL document CHEMBL5291721, “A preclinical secondary pharmacology resource illuminates target-adverse drug reaction associations of marketed drugs” (Nat Commun, 2023).

Test [1] has as its target Beta-3 adrenergic receptor (Homo sapiens, UniProt P13945).
In the next test the target is T1, B1 bradykinin receptor (Homo sapiens, UniProt P46663).
T1 sequence (P46663 whole entry): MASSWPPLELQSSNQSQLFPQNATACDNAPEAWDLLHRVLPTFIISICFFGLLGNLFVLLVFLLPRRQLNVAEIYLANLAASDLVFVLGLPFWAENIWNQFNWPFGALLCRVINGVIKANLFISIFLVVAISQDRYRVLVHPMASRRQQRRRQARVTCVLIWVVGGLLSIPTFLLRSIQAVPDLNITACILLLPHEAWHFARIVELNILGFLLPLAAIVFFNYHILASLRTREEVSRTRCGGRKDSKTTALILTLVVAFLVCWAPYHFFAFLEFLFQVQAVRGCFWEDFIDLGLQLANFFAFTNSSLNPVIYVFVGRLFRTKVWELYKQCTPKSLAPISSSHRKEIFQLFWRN

Test [2] deals with T2, Endothelin receptor type B (Homo sapiens, UniProt P24530).
T2 sequence (P24530 whole entry): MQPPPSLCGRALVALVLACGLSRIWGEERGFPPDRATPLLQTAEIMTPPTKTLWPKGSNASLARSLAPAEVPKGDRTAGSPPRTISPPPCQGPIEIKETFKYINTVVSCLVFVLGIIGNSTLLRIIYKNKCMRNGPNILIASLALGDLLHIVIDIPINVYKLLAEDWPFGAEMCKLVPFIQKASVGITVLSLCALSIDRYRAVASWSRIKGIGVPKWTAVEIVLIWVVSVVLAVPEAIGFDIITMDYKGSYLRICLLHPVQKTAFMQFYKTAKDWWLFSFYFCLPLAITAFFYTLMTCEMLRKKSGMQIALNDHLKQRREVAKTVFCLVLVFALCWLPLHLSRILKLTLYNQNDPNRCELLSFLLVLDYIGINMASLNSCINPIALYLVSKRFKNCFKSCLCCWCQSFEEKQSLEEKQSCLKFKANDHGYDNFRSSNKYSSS

The target of test [3] is Gamma-aminobutyric acid receptor subunit alpha-1/alpha-2/beta-2/gamma-2 (Homo sapiens, UniProt P14867+P18507+P47869+P47870). The class given is functional, cell-based.
Chain of Gamma-aminobutyric acid receptor subunit alpha-1/alpha-2/beta-2/gamma-2 (P14867 whole entry): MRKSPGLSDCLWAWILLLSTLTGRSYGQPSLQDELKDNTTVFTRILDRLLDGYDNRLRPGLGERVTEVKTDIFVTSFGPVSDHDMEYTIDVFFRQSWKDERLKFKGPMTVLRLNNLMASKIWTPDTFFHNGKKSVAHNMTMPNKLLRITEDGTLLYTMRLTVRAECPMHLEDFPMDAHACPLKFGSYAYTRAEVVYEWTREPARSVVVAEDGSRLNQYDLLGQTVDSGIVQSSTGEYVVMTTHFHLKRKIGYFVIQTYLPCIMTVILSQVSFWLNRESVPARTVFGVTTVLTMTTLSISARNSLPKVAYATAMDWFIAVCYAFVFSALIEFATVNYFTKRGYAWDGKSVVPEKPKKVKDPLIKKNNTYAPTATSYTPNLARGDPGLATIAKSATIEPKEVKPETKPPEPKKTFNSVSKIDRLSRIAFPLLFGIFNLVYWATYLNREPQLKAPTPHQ
Chain of Gamma-aminobutyric acid receptor subunit alpha-1/alpha-2/beta-2/gamma-2 (P47870 whole entry): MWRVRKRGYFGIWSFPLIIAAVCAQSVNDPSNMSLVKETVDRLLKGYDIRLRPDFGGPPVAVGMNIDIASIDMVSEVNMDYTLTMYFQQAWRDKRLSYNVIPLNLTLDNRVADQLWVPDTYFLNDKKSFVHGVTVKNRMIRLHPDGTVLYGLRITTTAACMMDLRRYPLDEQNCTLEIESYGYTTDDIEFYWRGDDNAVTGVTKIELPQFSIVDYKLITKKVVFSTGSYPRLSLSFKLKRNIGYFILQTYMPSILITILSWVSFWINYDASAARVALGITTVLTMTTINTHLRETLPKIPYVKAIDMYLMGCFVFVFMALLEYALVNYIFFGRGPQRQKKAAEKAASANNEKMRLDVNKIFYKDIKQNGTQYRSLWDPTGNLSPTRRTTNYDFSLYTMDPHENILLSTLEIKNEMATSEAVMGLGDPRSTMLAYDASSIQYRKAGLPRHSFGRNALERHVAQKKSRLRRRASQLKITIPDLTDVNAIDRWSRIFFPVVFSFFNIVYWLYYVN
Chain of Gamma-aminobutyric acid receptor subunit alpha-1/alpha-2/beta-2/gamma-2 (P18507 whole entry): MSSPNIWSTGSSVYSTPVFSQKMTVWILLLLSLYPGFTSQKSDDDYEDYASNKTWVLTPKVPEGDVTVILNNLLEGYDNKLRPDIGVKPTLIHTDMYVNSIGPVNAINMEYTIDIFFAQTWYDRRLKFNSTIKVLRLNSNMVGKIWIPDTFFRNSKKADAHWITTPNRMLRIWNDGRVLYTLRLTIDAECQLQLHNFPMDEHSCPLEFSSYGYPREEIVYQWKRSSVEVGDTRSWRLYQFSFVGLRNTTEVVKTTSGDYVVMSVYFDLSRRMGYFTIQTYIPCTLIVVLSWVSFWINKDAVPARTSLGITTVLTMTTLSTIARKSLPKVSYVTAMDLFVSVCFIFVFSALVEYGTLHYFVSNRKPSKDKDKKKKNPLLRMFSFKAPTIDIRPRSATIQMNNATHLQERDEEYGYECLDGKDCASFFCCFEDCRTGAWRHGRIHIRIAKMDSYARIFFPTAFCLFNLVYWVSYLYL
Chain of Gamma-aminobutyric acid receptor subunit alpha-1/alpha-2/beta-2/gamma-2 (P47869 whole entry): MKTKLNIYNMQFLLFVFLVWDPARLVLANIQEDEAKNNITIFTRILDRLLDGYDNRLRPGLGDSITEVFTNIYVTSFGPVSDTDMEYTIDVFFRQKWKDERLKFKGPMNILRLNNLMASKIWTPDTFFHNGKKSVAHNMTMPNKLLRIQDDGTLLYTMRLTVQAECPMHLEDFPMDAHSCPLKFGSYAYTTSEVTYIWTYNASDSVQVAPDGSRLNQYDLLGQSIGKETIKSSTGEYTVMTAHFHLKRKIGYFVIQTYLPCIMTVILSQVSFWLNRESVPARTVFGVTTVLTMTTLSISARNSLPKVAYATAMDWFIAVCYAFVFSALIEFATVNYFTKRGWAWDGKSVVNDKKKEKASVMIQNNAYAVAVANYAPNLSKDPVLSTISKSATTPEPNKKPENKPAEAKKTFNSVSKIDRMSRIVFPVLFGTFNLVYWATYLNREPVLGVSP
The target in a further test is Histamine H2 receptor (Homo sapiens, UniProt P25021).
Chain of Histamine H2 receptor (P25021 whole entry): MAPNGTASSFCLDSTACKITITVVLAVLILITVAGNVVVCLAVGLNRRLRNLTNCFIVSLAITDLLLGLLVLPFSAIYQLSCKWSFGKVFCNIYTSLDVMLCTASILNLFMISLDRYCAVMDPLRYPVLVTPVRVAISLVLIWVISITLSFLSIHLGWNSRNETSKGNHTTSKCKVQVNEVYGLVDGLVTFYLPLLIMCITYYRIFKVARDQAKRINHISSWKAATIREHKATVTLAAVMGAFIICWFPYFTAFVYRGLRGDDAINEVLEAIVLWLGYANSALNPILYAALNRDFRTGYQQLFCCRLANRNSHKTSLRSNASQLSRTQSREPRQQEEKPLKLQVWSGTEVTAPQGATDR
Test [4] addresses T3, Neuropeptide Y receptor type 2 (Homo sapiens, UniProt P49146).
T3 sequence (P49146 whole entry): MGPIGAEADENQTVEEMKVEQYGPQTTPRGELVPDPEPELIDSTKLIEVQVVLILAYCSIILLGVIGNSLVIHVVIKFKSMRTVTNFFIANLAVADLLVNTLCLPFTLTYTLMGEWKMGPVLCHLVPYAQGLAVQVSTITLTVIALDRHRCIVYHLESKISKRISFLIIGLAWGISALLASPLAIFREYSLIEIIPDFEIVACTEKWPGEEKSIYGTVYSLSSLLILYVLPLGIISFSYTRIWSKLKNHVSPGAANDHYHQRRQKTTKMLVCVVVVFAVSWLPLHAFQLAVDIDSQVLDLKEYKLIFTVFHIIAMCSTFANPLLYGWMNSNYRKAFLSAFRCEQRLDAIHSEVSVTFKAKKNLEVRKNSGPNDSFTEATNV

For test [5], the target named is Neurotensin receptor type 1 (Homo sapiens, UniProt P30989).
Chain of Neurotensin receptor type 1 (P30989 whole entry): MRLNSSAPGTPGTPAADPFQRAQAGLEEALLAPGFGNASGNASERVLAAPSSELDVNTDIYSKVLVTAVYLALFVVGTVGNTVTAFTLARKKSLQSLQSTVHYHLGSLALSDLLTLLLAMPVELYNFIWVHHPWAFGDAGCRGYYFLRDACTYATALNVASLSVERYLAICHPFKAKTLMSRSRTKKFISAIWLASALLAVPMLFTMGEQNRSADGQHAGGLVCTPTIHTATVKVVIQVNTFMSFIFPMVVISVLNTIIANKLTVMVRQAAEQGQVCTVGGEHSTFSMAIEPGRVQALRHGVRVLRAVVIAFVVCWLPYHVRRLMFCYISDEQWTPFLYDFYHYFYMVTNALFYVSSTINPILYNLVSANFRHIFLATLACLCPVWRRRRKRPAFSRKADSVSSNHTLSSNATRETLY
For test [6], the target named is T4, Alpha-1A adrenergic receptor (Homo sapiens, UniProt P35348).
T4 sequence (P35348 whole entry): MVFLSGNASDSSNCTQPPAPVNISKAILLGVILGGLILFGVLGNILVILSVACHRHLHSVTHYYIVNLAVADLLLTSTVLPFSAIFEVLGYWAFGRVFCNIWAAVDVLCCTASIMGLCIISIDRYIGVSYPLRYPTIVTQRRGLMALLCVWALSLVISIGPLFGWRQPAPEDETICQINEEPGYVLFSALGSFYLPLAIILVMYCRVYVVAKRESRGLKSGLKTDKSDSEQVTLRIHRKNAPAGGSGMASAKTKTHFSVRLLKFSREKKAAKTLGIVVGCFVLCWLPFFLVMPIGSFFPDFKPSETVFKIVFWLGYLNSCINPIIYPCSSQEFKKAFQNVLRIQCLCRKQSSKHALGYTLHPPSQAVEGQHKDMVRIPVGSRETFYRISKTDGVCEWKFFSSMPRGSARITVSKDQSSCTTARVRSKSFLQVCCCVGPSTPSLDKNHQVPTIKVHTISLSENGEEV

For test [7], the target named is T5, Peroxisome proliferator-activated receptor gamma (Homo sapiens, UniProt P37231).
T5 sequence (P37231 whole entry): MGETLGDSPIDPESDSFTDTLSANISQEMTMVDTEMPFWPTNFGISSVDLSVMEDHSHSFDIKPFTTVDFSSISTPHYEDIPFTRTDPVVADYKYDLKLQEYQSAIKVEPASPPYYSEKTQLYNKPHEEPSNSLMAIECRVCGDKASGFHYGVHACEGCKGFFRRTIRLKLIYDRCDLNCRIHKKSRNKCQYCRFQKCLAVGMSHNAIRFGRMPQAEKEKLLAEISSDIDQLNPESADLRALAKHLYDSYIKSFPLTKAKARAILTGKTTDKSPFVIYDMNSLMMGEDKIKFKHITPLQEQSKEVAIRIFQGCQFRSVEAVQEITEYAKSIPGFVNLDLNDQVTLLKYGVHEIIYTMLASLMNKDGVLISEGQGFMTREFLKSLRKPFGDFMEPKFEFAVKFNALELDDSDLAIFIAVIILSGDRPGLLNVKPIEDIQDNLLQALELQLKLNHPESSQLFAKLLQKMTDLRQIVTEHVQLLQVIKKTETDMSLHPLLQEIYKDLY
The class given is functional.

The target of test [8] is Beta-1 adrenergic receptor (Homo sapiens, UniProt P08588). The class given is functional, cell-based.
Chain of Beta-1 adrenergic receptor (P08588 whole entry): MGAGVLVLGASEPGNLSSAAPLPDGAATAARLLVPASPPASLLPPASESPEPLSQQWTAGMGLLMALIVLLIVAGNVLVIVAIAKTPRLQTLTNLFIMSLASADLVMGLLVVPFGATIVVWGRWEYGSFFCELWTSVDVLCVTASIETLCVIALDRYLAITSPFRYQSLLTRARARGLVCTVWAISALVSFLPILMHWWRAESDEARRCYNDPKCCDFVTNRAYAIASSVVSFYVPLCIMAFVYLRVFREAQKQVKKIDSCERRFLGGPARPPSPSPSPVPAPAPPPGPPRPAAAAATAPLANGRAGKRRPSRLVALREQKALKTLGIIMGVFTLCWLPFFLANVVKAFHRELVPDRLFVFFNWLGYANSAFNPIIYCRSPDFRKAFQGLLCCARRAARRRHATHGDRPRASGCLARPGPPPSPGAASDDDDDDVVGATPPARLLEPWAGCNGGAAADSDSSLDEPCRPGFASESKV
Further: assay procedure not described here.

Chain of Beta-3 adrenergic receptor (P13945 whole entry): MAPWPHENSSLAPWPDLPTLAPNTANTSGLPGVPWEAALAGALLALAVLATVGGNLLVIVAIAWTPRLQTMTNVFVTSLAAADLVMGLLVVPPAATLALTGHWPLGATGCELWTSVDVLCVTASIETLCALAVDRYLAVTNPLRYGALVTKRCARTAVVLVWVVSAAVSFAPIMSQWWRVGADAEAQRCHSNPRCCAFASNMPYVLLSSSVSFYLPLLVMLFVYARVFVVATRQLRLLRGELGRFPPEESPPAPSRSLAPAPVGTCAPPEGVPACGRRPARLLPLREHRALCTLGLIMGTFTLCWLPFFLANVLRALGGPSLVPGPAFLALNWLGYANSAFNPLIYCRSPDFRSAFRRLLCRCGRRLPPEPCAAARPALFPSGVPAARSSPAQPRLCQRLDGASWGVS

As a reminder, the AC50 is the concentration giving half of the maximal activity seen. Low readings indicate activity at low concentration, high ones activity only at high concentration. In the case of `CNS(=O)(=O)Cc1ccc2[nH]cc(CCN(C)C)c2c1`, the half-maximal activity concentration (AC50) in test [1] is greater than 30 µM; on B1 bradykinin receptor, greater than 30 µM; in test [2] it was greater than 30 µM; in test [3] it was greater than 30 µM; at Histamine H2 receptor it was greater than 10 µM; in test [4], greater than 30 µM. Besides, the concentration at half-maximal activity (AC50) in test [5] is greater than 30 µM; in [6] it was greater than 10 µM.

`CC(=O)O[C@H]1CC[C@@]2(C)C(=CC[C@@H]3[C@@H]2CC[C@]2(C)C(c4cccnc4)=CC[C@@H]32)C1` [ABIRATERONE ACETATE] gave an AC50 in [7] greater than 30 µM.

`NCC(=O)CCC(=O)O` [AMINOLEVULINIC ACID] came in with an AC50 in [3] greater than 30 µM.

The molecule `CO/N=C(\C(=O)N[C@@H]1C(=O)N2C(C(=O)O)=C(CSc3nnnn3C)CS[C@H]12)c1csc(N)n1` [CEFMENOXIME] gave an AC50 in [7] greater than 30 µM.

In the case of `CCN1CCN(C(=O)N[C@@H](C(=O)N[C@@H]2C(=O)N3C(C(=O)O)=C(CSc4nnnn4C)CS[C@H]23)c2ccc(O)cc2)C(=O)C1=O` [CEFOPERAZONE], the half-maximal activity concentration (AC50) in test [3] and in test [7] was greater than 30 µM each time.

As to `COc1ccc2c3c1O[C@H]1[C@@H](O)C=C[C@H]4[C@@H](C2)N(C)CC[C@@]341` [CODEINE], the AC50 in [1] was greater than 30 µM; on B1 bradykinin receptor it was greater than 30 µM; in test [2], greater than 30 µM; on Histamine H2 receptor it was greater than 10 µM; in test [4], greater than 30 µM; in [5], greater than 30 µM. This molecule also displayed an AC50 in test [6] greater than 10 µM.

In test [8], `Cn1c(=O)c2c(ncn2CC2OCCO2)n(C)c1=O` [DOXOFYLLINE] had an AC50 greater than 30 µM.

`CCCCc1ncc(/C=C(\Cc2cccs2)C(=O)O)n1Cc1ccc(C(=O)O)cc1` [EPROSARTAN]: the half-maximal activity concentration (AC50) in [1] is greater than 30 µM; on B1 bradykinin receptor, greater than 30 µM; in test [2], greater than 30 µM; at Histamine H2 receptor, greater than 10 µM; in test [4] it was greater than 30 µM; in [5] it was greater than 30 µM. Besides, the AC50 in test [6] is greater than 10 µM.

On to `CCc1c(Cl)c(O)c(Cl)c(O)c1C(=O)O[C@H]1[C@H](O)[C@H](OC)[C@H](OC/C2=C\C=C\C[C@H](O)/C(C)=C/[C@H](CC)[C@@H](O[C@@H]3OC(C)(C)[C@@H](OC(=O)C(C)C)[C@H](O)[C@@H]3O)/C(C)=C/C(C)=C/C[C@@H]([C@@H](C)O)OC2=O)O[C@@H]1C` [FIDAXOMICIN], for which the AC50 in [1] is greater than 30 µM; on B1 bradykinin receptor, greater than 30 µM; in test [2], greater than 30 µM; on Histamine H2 receptor, greater than 10 µM; in [4], greater than 30 µM; in test [5], greater than 30 µM. In test [6], this molecule came in with an AC50 greater than 10 µM.

As to `COc1ccc(CCN(C)CCCC(C#N)(c2cc(OC)c(OC)c(OC)c2)C(C)C)cc1OC` (centres undefined) [GALLOPAMIL], the AC50 in [8] is greater than 30 µM.

The molecule `CC(C)C(=O)c1c(C(C)C)nn2ccccc12` [IBUDILAST] returned an AC50 in test [8] greater than 30 µM.

As for `CCC(C(=O)O)c1ccc(N2Cc3ccccc3C2=O)cc1` (centres undefined) [INDOBUFEN], the AC50 in [8] was greater than 30 µM.

Turning to `CC(C)(C)c1cc(C(C)(C)C)c(NC(=O)c2c[nH]c3ccccc3c2=O)cc1O` [IVACAFTOR], the values for the AC50 (in test [1]; on Histamine H2 receptor) were 4.4 µM and greater than 10 µM, respectively.

With `CC(C)OC(=O)CCC/C=C\C[C@@H]1[C@@H](CC[C@@H](O)CCc2ccccc2)[C@H](O)C[C@@H]1O` [LATANOPROST], the AC50 in test [3] and in [7] was greater than 30 µM in each case.

With `CCC1(CC)C(=O)NCC(C)C1=O` (centres undefined) [METHYPRYLON], the AC50 in [3] and in [7] was greater than 30 µM each time.

Regarding `CCOC(=O)[N-]c1cn(N2CCOCC2)n[o+]1` [MOLSIDOMINE], the AC50 in test [8] is greater than 30 µM.

As to `CCCc1nc(C(C)(C)O)c(C(=O)OCc2oc(=O)oc2C)n1Cc1ccc(-c2ccccc2-c2nnn[nH]2)cc1` [OLMESARTAN MEDOXOMIL], the AC50 in test [1] was greater than 30 µM; at B1 bradykinin receptor, greater than 50 µM; in test [2], greater than 50 µM; in test [4] it was greater than 50 µM; in test [5], greater than 30 µM; in [6], greater than 10 µM.

For the molecule `N#Cc1ccc([C@H]2CCc3cncn32)c(F)c1` [OSILODROSTAT], the AC50 (at B1 bradykinin receptor; in test [2]; on Histamine H2 receptor; in test [4]; in [5]; in test [6]) was greater than 10 µM each time.

`CN1CCC(=C2c3ccccc3CCc3sccc32)CC1` [PIZOTYLINE] returned an AC50 in test [3] greater than 30 µM.

`CCCN(CCC)C(=O)C(CCC(=O)O)NC(=O)c1ccccc1` (centres undefined) [PROGLUMIDE]: the AC50 was greater than 30 µM in test [1]; greater than 30 µM on B1 bradykinin receptor; greater than 30 µM in test [2]; greater than 10 µM on Histamine H2 receptor; greater than 30 µM in test [4]; greater than 30 µM in [5].

Consider `CN1C(=O)C(O)N=C(c2ccccc2)c2cc(Cl)ccc21` (centres undefined) [TEMAZEPAM], for which the AC50 in test [1] is greater than 30 µM; at B1 bradykinin receptor, greater than 30 µM; in test [2], greater than 30 µM; on Histamine H2 receptor, greater than 10 µM; in test [4], greater than 30 µM; in test [5], greater than 30 µM. This molecule registered an AC50 in [6] greater than 10 µM.

`CCN(CC)C(=O)N[C@H]1C[C@@H]2c3cccc4[nH]cc(c34)C[C@H]2N(C)C1` [TERGURIDE]: the AC50 in test [3] and in [7] was greater than 30 µM each time.

For `C/C(O)=C(\C#N)C(=O)Nc1ccc(C(F)(F)F)cc1` [TERIFLUNOMIDE], the results for the AC50 in [3] and in test [7] were greater than 30 µM and 25 µM, respectively.

`CN1CCN(CC/C=C2/c3ccccc3Sc3ccc(S(=O)(=O)N(C)C)cc32)CC1` [THIOTHIXENE]: the AC50 in test [1] is greater than 30 µM; on B1 bradykinin receptor, greater than 30 µM; in test [2], greater than 30 µM; on Histamine H2 receptor, 0.145 µM; in [4], greater than 30 µM; in [5], greater than 30 µM. This molecule also returned an AC50 in [6] of 0.0624 µM.

In turn, `COc1cc2c(N)nc(N3CCN(C(=O)OCC(C)(C)O)CC3)nc2c(OC)c1OC` [TRIMAZOSIN] had an AC50 in test [8] greater than 30 µM.

Consider `O=C(NCCNCC(O)COc1ccc(O)cc1)N1CCOCC1` (centres undefined) [XAMOTEROL], for which the concentration at half-maximal activity (AC50) in [3] was greater than 30 µM.
